Source: patent publication US10683278B2 (JINAN UNIVERSITY, priority 2015, dated 2020)

How the values were obtained:
AXL kinase = target: T1, AXL kinase (Homo sapiens, UniProt P30530); assay: IC50 test on AXL kinase (Z′-LYTE FRET kinase activity detection); format: biochemical; details: for IC50: Z′-LYTE FRET peptide assay, 1 h reaction; for inhibitory activity on AXL kinase: competitive experiment with ATP, in words
T1 construct: purchased Invitrogen PV4803
T1 sequence (P30530 26-894): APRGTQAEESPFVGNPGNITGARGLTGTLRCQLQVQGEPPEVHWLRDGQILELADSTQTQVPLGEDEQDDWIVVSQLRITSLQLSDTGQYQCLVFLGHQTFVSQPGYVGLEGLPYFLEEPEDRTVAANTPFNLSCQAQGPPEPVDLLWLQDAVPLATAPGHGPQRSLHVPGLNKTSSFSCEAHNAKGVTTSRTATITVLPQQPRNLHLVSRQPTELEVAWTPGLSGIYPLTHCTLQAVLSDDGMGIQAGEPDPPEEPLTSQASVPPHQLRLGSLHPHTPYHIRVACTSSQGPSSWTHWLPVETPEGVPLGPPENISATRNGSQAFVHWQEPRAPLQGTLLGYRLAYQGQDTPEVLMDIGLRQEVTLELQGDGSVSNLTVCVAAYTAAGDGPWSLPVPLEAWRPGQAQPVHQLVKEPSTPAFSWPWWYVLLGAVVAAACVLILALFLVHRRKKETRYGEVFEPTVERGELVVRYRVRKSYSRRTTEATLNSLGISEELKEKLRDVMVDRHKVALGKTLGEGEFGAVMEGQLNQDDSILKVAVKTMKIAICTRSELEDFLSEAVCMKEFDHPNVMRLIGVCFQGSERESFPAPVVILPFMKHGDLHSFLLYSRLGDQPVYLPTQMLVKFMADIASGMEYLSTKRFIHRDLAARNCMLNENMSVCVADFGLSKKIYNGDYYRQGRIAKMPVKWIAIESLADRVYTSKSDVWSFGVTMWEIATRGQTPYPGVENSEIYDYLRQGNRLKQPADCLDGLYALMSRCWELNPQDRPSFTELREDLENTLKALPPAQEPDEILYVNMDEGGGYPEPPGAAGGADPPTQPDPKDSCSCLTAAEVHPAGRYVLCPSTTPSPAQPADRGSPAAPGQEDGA
Method in brief: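 AXL kinase with Z′-LYTE Tyr 2 FRET peptide, ATP and graded compound concentrations reacted 1 h, then site-specific protease cleaved non-phosphorylated peptide for 1 h. Emission at 445 and 520 nm with 400 nm excitation gave the IC50.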

[1] = target: T2, FLT-3 kinase domain recombinant protein (Homo sapiens, UniProt P36888); assay: Inhibition rate on FLT3 kinase (ELISA); format: biochemical; details: two values per compound; for inhibition at 0.01 µM / inhibition at 0.1 µM / inhibition at 1 µM: read-out: Inhibition rate (%) against receptor tyrosine kinase FLT-3
T2 construct: 50 μL FLT-3 kinase domain recombinant protein diluted with reaction buffer to initiate the reaction
T2 sequence (P36888 610-943 limits assumed): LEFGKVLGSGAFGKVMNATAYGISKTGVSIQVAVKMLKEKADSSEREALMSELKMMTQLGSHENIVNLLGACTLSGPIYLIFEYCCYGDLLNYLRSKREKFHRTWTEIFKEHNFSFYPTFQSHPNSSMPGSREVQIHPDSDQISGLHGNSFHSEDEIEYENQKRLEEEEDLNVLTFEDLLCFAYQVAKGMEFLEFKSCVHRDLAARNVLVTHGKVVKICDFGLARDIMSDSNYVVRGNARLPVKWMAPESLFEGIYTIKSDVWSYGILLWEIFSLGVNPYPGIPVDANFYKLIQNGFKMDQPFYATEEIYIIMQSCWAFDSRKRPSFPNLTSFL
Method in brief: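 Recombinant FLT-3 kinase domain phosphorylated coated Poly(Glu,Tyr) 4:1 with ATP in HEPES pH 7.4 buffer with MgCl2, MnCl2, Na3VO4, DTT, 1 h at 37 °C; 1% DMSO final. Phosphotyrosine detected with PY99 and HRP anti-mouse antibody, OPD development, absorbance at 490 nm.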

Row | IC50 (AXL kinase) [nM] | inhibitory activity on AXL kinase (AXL kinase) | Inhibition rate (%) against receptor tyrosine kinase FLT-3 ([1]; compound 10 nM, 0.01 µM) [%] | inhibition at 0.01 µM ([1]; compound 10 nM) [%] | Inhibition rate (%) against receptor tyrosine kinase FLT-3 ([1]; compound 100 nM, 0.1 µM) [%] | inhibition at 0.1 µM ([1]; compound 100 nM) [%] | inhibition at 1 µM ([1]; compound 1000 nM) [%] | Inhibition rate (%) against receptor tyrosine kinase FLT-3 ([1]; compound 1000 nM, 1 µM) [%] | Structure (SMILES)
1 | 6 | strong inhibitory activity | 71.7 | 59.1 | 79.5 | 75.4 | 87.9 | – | CCc1ccc2c(c1)c(=O)c(C(=O)Nc1ccc(Oc3ncnc4cc(OCCN(C)C)c(OC)cc34)c(F)c1)c(C)n2C [GDL5000128, N-(4-(7-(2-(dimethylamino)ethoxy)-6-methoxyquinazolin-4-yloxy)-3-fluorophenyl)-6-ethyl-1,2-dimethyl-4-oxo-1,4-dihydroquinoline-3-carboxamide]
2 | 8 | strong inhibitory activity | 74.8 | 75.4 | 83.8 | 89.3 | 104 | 97.4 | CCc1ccc2c(c1)c(=O)c(C(=O)Nc1ccc(Oc3ncnc4cc(OCCCN5CCOCC5)c(OC)cc34)c(F)c1)c(C)n2C [GDL5000123, 6-ethyl-N-(3-fluoro-4-((6-methoxy-7-(3-morpholinopropoxy)quinazolin-4-yl)oxy)phenyl)-1,2-dimethyl-4-oxo-1,4-dihydroquinoline-3-carboxamide]
3 | 6 | – | 41.9 | 48.7 | 70.4 | 76.3 | 86.6 | 80.7 | CCc1ccc2c(c1)c(=O)c(C(=O)Nc1ccc(Oc3ncnc4[nH]cc(-c5ccccc5)c34)c(F)c1)c(C)n2C [TL4800075, 6-ethyl-N-(3-fluoro-4-((5-phenyl-7H-pyrrolo[2,3-d]pyrimidin-4-yl)oxy)phenyl)-1,2-dimethyl-4-oxo-1,4-dihydroquinoline-3-carboxamide]
4 | 3 | strong inhibitory activity | 66.4 | 67.7 | 83.0 | 81.5 | 98 | 98.1 | CCc1ccc2c(c1)c(=O)c(C(=O)Nc1ccc(Oc3ncnc4cc(OCCCN5CCN(C)CC5)c(OC)cc34)c(F)c1)c(C)n2C [GDL5000138, 6-ethyl-N-(3-fluoro-4-(6-methoxy-7-(3-(4-methylpiperazin-1-yl)propoxy)quinazolin-4-yloxy)phenyl)-1,2-dimethyl-4-oxo-1,4-dihydroquinoline-3-carboxamide]
5 | 4 | – | 67.0 | 70.7 | 77.1 | 86.4 | 84.7 | 83.2 | CCc1ccc2c(c1)c(=O)c(C(=O)Nc1ccc(Oc3ncnc4cc(OC)c(OC)cc34)c(F)c1)c(C)n2C [TL4800191, N-(4-(6,7-dimethoxyquinazolin-4-yloxy)-3-fluorophenyl)-6-ethyl-1,2-dimethyl-4-oxo-1,4-dihydroquinoline-3-carboxamide]
6 | 28 | – | 57.9 | 56.8 | 65.8 | 71.4 | 79.5 | 76.4 | COc1cc2ncnc(Oc3ccc(NC(=O)c4cn5c6c(c(N7CCC(O)CC7)c(F)cc6c4=O)CCC5C)cc3F)c2cc1OC (centres unmarked) [TL4830031, N-(4-((6,7-dimethoxyquinazolin-4-yl)oxy)-3-fluorophenyl)-9-fluoro-8-(4-hydroxypiperidin-1-yl)-5-methyl-1-oxo-1,5,6,7-tetrahydropyrido[3,2,1-ij]quinoline-2-carboxamide]
